Results published in patent publication US12138256B2, “Treatment of cardiopulmonary disorders” (Bayer Aktiengesellschaft, priority 2021, dated 2024).

Tested on: pulmonary vascular resistance (PVR)
Test: Phase 1b, patients with PAH or CTEPH, inhaled single doses, right heart catheterization: PVR and mPAP (C-4.4)
Assay type: in vivo, human
Method: Patients with PAH or CTEPH were treated in a clinical phase 1b study with escalating orally inhaled single* doses of 240 μg (2 capsules of 120 μg), 480 μg, 1000 μg, 2000 (2 capsules of 1000 μg) or 4000 μg (4 capsules of 1000 μg) of a dry powder of example 4 (see under D-1, e.g. tables 17 and 20), inserted into a handheld inhalation device, inhaled by deep inhalative breath into the deep parts of the lung. (*single dose means the administration of one dosage form/capsule as well as administration of two or more dosage forms/capsules simultaneously or consecutively within a short time period). The included patients had no background treatment with standard of care (SoC) medication for PAH or CTEPH (such as endothelin antagonists, prostanoids, phosphodiesterase type 5 inhibitor or soluble guanylate cyclase stimulators). Patients in this study underwent invasive right heart catheterization as medically indicated routine diagnostic. Primary objective of the study was to investigate the peak percent reduction from baseline in PVR. Patients had to have a baseline pulmonary artery pressure (mPAP) of ≥25 mmHg and a PVR of ≥400 dyn·sec·cm^−5 (5 Wood Units) and were not to show vaso-responsiveness to initial iNO inhalation testing to be included in the per protocol analysis. Plasma concentrations (pharmacokinetics) of the administered drug at several time points after administration were measured and safety and tolerability was assessed.
The study is divided into two parts, Part A and Part B. In Part A escalating aforementioned single doses were administered to patients without background treatment with standard of care (SoC) medication for PAH or CTEPH (such as endothelin antagonists, prostanoids, phosphodiesterase type 5 inhibitor or soluble guanylate cyclase stimulators). In Part B, after finalization of Part A, a selected dose from PartA will be tested in further patients without background SoC treatment (group 1) and additionally in patients on monotherapy with SoC (group 2) and on dual combination therapy with SoC (group 3).
The PVR is a derived parameter from parameters directly measured during the right heart catheterization procedure. The direct parameters included in the calculation are: mean pulmonary arterial pressure [mmHg](mPAP), pulmonary capillary wedge pressure [mmHg] (PCWP), and cardiac output [l/min] (CO). The PVR is calculated according to the formula: PVR [dyn*see*cm^−5]=80*(mPAP-PCWP)/CO.
Overall 38 patients received a dose of dry powder of example 4. A total of 4 patients in each dose group were included into the per protocol set as planned (total 20 patients). A dose-dependent mean change of PVR from baseline could be clearly observed peaking in an enduring mean change of approximately −30% in the 2000 μg and 4000 μg groups (for details of PVR see FIG. 82 and table C4.4.1). The decreases in PVR were predominantly driven by decreases in pulmonary arterial pressure (for details of mean PAP see FIG. 83 and table C4.4.2). A mean peak change level of −20%—as the predefined relevant threshold level—was clearly exceeded peaking in the 2000 μg and 4000 μg groups (mean peak changes were: −21.0%, −16.1%, −25.9%, −38.1%, −36.3% for 240, 480, 1000, 2000, and 4000 μg, respectively). The magnitude of mean change in PVR of −30% from baseline was at the same level as for the inhaled competitor Treprostinil (Tyvaso®) after single administration in a historical comparison [Voswinckel et al, Journal of American College of Cardiology Vol. 48, No. 8, 2006 Oct. 17, 2006:1672-81]. However, the effect after example 4 application was advantageously sustained with no decrease in response until the end of the measurement period of 3 h (a measurement period of >3 h was technically not feasible for the patients with right heart catheter in the study). […] Increase of systemic cGMP (cyclic Guanosine Monophosphate) confirmed strong target engagement of sGC activation. […]

[1] = 240 μg, 0 D 00 H 00 M (baseline)
[2] = 480 μg, 0 D 00 H 00 M (baseline)
[3] = 1000 μg, 0 D 00 H 00 M (baseline)
[4] = 2000 μg, 0 D 00 H 00 M (baseline)
[5] = 4000 μg, 0 D 00 H 00 M (baseline)

## O=C(O)c1ccc(CCN(CCc2ccccc2OCc2ccc(-c3ccc(C(F)(F)F)cc3)cc2Cl)[C@H]2CCCc3nc(C(=O)O)ccc32)cc1 [example 4, (5S)-{[2-(4-Carboxyphenyl)ethyl][2-(2-{[3-chloro-4′-(trifluoromethyl)biphenyl-4-yl]methoxy}phenyl)-ethyl]amino}-5,6,7,8-tetrahydroquinoline-2-carboxylic acid]
240 μg
  mean peak change of PVR from baseline: −21.0%
[1]
  mean pulmonary arterial pressure (mPAP), mean ± SD: 42.8 ± 11.1 mmHg
  pulmonary vascular resistance (PVR), mean ± SD: 788.338 ± 416.914 dyn·sec·cm^−5
240 μg, 0 D 00 H 30 M
  mean pulmonary arterial pressure (mPAP), mean ± SD: 42.5 ± 11.0 mmHg
  pulmonary vascular resistance (PVR), mean ± SD: 749.012 ± 398.928 dyn·sec·cm^−5
240 μg, 0 D 01 H 00 M
  mean pulmonary arterial pressure (mPAP), mean ± SD: 44.3 ± 10.4 mmHg
  pulmonary vascular resistance (PVR), mean ± SD: 734.427 ± 396.799 dyn·sec·cm^−5
240 μg, 0 D 01 H 30 M
  mean pulmonary arterial pressure (mPAP), mean ± SD: 43.0 ± 8.0 mmHg
  pulmonary vascular resistance (PVR), mean ± SD: 726.362 ± 364.099 dyn·sec·cm^−5
240 μg, 0 D 02 H 00 M
  mean pulmonary arterial pressure (mPAP), mean ± SD: 39.5 ± 7.9 mmHg
  pulmonary vascular resistance (PVR), mean ± SD: 710.844 ± 410.668 dyn·sec·cm^−5
240 μg, 0 D 02 H 30 M
  mean pulmonary arterial pressure (mPAP), mean ± SD: 42.0 ± 6.5 mmHg
  pulmonary vascular resistance (PVR), mean ± SD: 716.209 ± 419.311 dyn·sec·cm^−5
240 μg, 0 D 03 H 00 M
  mean pulmonary arterial pressure (mPAP), mean ± SD: 39.0 ± 4.2 mmHg
  pulmonary vascular resistance (PVR), mean ± SD: 657.829 ± 291.191 dyn·sec·cm^−5
480 μg
  mean peak change of PVR from baseline: −16.1%
[2]
  mean pulmonary arterial pressure (mPAP), mean ± SD: 55.0 ± 8.6 mmHg
  pulmonary vascular resistance (PVR), mean ± SD: 1055.863 ± 317.077 dyn·sec·cm^−5
480 μg, 0 D 00 H 30 M
  mean pulmonary arterial pressure (mPAP), mean ± SD: 52.3 ± 8.4 mmHg
  pulmonary vascular resistance (PVR), mean ± SD: 1003.264 ± 300.639 dyn·sec·cm^−5
480 μg, 0 D 01 H 00 M
  mean pulmonary arterial pressure (mPAP), mean ± SD: 53.8 ± 9.1 mmHg
  pulmonary vascular resistance (PVR), mean ± SD: 1007.504 ± 290.883 dyn·sec·cm^−5
480 μg, 0 D 01 H 30 M
  mean pulmonary arterial pressure (mPAP), mean ± SD: 55.0 ± 8.0 mmHg
  pulmonary vascular resistance (PVR), mean ± SD: 1031.647 ± 252.210 dyn·sec·cm^−5
480 μg, 0 D 02 H 00 M
  mean pulmonary arterial pressure (mPAP), mean ± SD: 52.5 ± 7.9 mmHg
  pulmonary vascular resistance (PVR), mean ± SD: 908.704 ± 252.569 dyn·sec·cm^−5
480 μg, 0 D 02 H 30 M
  mean pulmonary arterial pressure (mPAP), mean ± SD: 54.0 ± 9.7 mmHg
  pulmonary vascular resistance (PVR), mean ± SD: 1038.344 ± 263.837 dyn·sec·cm^−5
480 μg, 0 D 03 H 00 M
  mean pulmonary arterial pressure (mPAP), mean ± SD: 56.0 ± 11.1 mmHg
  pulmonary vascular resistance (PVR), mean ± SD: 909.265 ± 259.510 dyn·sec·cm^−5
1000 μg
  mean peak change of PVR from baseline: −25.9%
[3]
  mean pulmonary arterial pressure (mPAP), mean ± SD: 34.3 ± 4.9 mmHg
  pulmonary vascular resistance (PVR), mean ± SD: 608.898 ± 135.153 dyn·sec·cm^−5
1000 μg, 0 D 00 H 30 M
  mean pulmonary arterial pressure (mPAP), mean ± SD: 33.8 ± 7.5 mmHg
  pulmonary vascular resistance (PVR), mean ± SD: 645.387 ± 211.946 dyn·sec·cm^−5
1000 μg, 0 D 01 H 00 M
  mean pulmonary arterial pressure (mPAP), mean ± SD: 31.8 ± 7.4 mmHg
  pulmonary vascular resistance (PVR), mean ± SD: 558.324 ± 169.860 dyn·sec·cm^−5
1000 μg, 0 D 01 H […]
  mean pulmonary arterial pressure (mPAP), mean ± SD: 32.0 ± 8.9 mmHg
  pulmonary vascular resistance (PVR), mean ± SD: 542.130 ± 187.227 dyn·sec·cm^−5
1000 μg, 0 D 02 H 00 M
  mean pulmonary arterial pressure (mPAP), mean ± SD: 32.3 ± 9.0 mmHg
  pulmonary vascular resistance (PVR), mean ± SD: 487.951 ± 144.546 dyn·sec·cm^−5
1000 μg, 0 D 02 H […]
  mean pulmonary arterial pressure (mPAP), mean ± SD: 33.5 ± 10.7 mmHg
  pulmonary vascular resistance (PVR), mean ± SD: 537.812 ± 204.640 dyn·sec·cm^−5
1000 μg, 0 D 03 H 00 M
  pulmonary vascular resistance (PVR), mean ± SD: 535.636 ± 235.786 dyn·sec·cm^−5
2000 μg
  mean peak change of PVR from baseline: −38.1%
2000 μg and 4000 μg groups, single inhaled dose, per protocol set N=4 each
  mean change of PVR from baseline: approximately −30%
[4]
  mean pulmonary arterial pressure (mPAP), mean ± SD: 33.5 ± 3.4 mmHg
  pulmonary vascular resistance (PVR), mean ± SD: 468.608 ± 20.537 dyn·sec·cm^−5
2000 μg, 0 D 00 H 30 M
  mean pulmonary arterial pressure (mPAP), mean ± SD: 33.3 ± 6.3 mmHg
  pulmonary vascular resistance (PVR), mean ± SD: 464.586 ± 58.200 dyn·sec·cm^−5
2000 μg, 0 D 01 H 00 M
  mean pulmonary arterial pressure (mPAP), mean ± SD: 30.8 ± 5.6 mmHg
  pulmonary vascular resistance (PVR), mean ± SD: 421.730 ± 81.602 dyn·sec·cm^−5
2000 μg, 0 D 01 H 30 M
  mean pulmonary arterial pressure (mPAP), mean ± SD: 28.5 ± 7.3 mmHg
  pulmonary vascular resistance (PVR), mean ± SD: 340.782 ± 82.566 dyn·sec·cm^−5
2000 μg, 0 D 02 H 00 M
  mean pulmonary arterial pressure (mPAP), mean ± SD: 27.0 ± 6.1 mmHg
  pulmonary vascular resistance (PVR), mean ± SD: 339.924 ± 105.884 dyn·sec·cm^−5
2000 μg, 0 D 02 H 30 M
  mean pulmonary arterial pressure (mPAP), mean ± SD: 27.3 ± 6.0 mmHg
  pulmonary vascular resistance (PVR), mean ± SD: 338.404 ± 87.381 dyn·sec·cm^−5
2000 μg, 0 D 03 H 00 M
  mean pulmonary arterial pressure (mPAP), mean ± SD: 27.5 ± 5.2 mmHg
  pulmonary vascular resistance (PVR), mean ± SD: 327.284 ± 25.882 dyn·sec·cm^−5
4000 μg
  mean peak change of PVR from baseline: −36.3%
[5]
  mean pulmonary arterial pressure (mPAP), mean ± SD: 46.0 ± 8.1 mmHg
  pulmonary vascular resistance (PVR), mean ± SD: 713.998 ± 117.204 dyn·sec·cm^−5
4000 μg, 0 D 00 H 30 M
  mean pulmonary arterial pressure (mPAP), mean ± SD: 43.0 ± 4.6 mmHg
  pulmonary vascular resistance (PVR), mean ± SD: 616.894 ± 97.774 dyn·sec·cm^−5
4000 μg, 0 D 01 H 00 M
  mean pulmonary arterial pressure (mPAP), mean ± SD: 41.3 ± 4.6 mmHg
  pulmonary vascular resistance (PVR), mean ± SD: 542.417 ± 97.103 dyn·sec·cm^−5
4000 μg, 0 D 01 H 30 M
  mean pulmonary arterial pressure (mPAP), mean ± SD: 40.3 ± 5.1 mmHg
  pulmonary vascular resistance (PVR), mean ± SD: 573.812 ± 123.865 dyn·sec·cm^−5
4000 μg, 0 D 02 H 00 M
  mean pulmonary arterial pressure (mPAP), mean ± SD: 40.0 ± 5.3 mmHg
  pulmonary vascular resistance (PVR), mean ± SD: 501.07 ± 97.979 dyn·sec·cm^−5
4000 μg, 0 D 02 H […]
  mean pulmonary arterial pressure (mPAP), mean ± SD: 39.8 ± 3.0 mmHg
  pulmonary vascular resistance (PVR), mean ± SD: 526.648 ± 144.679 dyn·sec·cm^−5
4000 μg, 0 D 03 H 00 M
  mean pulmonary arterial pressure (mPAP), mean ± SD: 39.8 ± 4.1 mmHg
  pulmonary vascular resistance (PVR), mean ± SD: 493.103 ± 130.480 dyn·sec·cm^−5
End of the measurement period
  duration of sustained PVR effect with no decrease in response: ≥ 3 h
Single inhaled doses 240 to 4000 μg
  tolerability: Overall good tolerability was seen including the highest dose of 4000 μg
